Measurements reported in publication PMC4403042, “Atrial-like cardiomyocytes from human pluripotent stem cells are a robust preclinical model for assessing atrial-selective pharmacology” (EMBO Molecular Medicine, 2015).

Columns and labels:
Type in all cases: cell-based, human
[1] = tested on: differentiating hESCs; assay: AP characterization of CMs generated from RA-treated differentiations (patch-clamp)
From the text: To study the electrical phenotype of CMs treated with RA during differentiation, we measured APs of dissociated single cells using the patch-clamp method (Fig3). Representative APs stimulated at 1 Hz are shown in Fig3B. The AP of a CM treated with RA during differentiation (RA) depicts an AP with a fast phase-1 repolarization and a plateau phase with a more negative potential compared to a control (CT) CM (Fig3B).
Spin EBs resulting from control and RA-treated differentiations were dissociated at day 17 to single cells using TrypLE™ Select (Life Technologies) and plated on gelatin-coated coverslips. Electrophysiological measurements were performed 10–14 days after dissociation from intrinsically quiescent single GFP^+ CMs that were able to contract upon field stimulation.
APs and membrane currents from hESC-CMs were recorded with the amphotericin-B-perforated patch-clamp technique at 36 ± 0.2°C using an Axopatch 200B amplifier (Molecular Devices, Sunnyvale, CA, USA). […] AP measurements were low-pass-filtered (cutoff frequency 10 kHz) and digitized at 40 kHz; membrane currents were measured at 1 and 4 kHz, respectively. Capacitance and series resistance were compensated by ≥ 80%, and APs were corrected for the calculated liquid junction potential (Barry & Lynch, [1991]). […]

[2] = tested on: COUP-TFI (NR2F1); assay: qPCR of COUP-TFI after RA treatment; settings: day 31 GFP+ CMs, RA-treated vs control differentiation
Description: (§1) In order to determine the dynamics of COUP-TF expression following RA treatment, expression levels of both COUP-TFI and II were analyzed by qPCR at different time points and compared to control EBs. COUP-TFs were induced within 24 h of treatment with RA followed by dramatic increase in expression thereafter. […] The expression of COUP-TFs was maintained in differentiated CMs at day 31. COUP-TFI was expressed 20-fold higher, and COUP-TFII was enriched over 30-fold in hESC-atrial CMs compared to hESC-ventricular CMs (Fig4A and B). Antibodies selectively binding to COUP-TFI or COUP-TFII were used to verify the expression of these proteins. […]
(§2) atRA (Sigma) was diluted in DMSO to make a solution of 50 mmol/L which was further diluted in distilled water to have a stock solution of 0.0001 mol/L. atRA was used in a final concentration of 1 µmol/L in BPEL medium to direct atrial […]
(§3) Gene expression was determined on the HumanHT-12 v4 Expression BeadChip at ServiceXS, Leiden, The Netherlands. […]
(§4) For assessing gene expression by qPCR, cDNA was synthesized from approximately 1µ g of RNA obtained from three independent differentiations (iScript cDNA Synthesis Kit, BIO-RAD). Target identification was performed using SYBR Green (Applied Biosystems, Life technologies) and detected by CFX96 Real-Time PCR system (Bio-Rad). […]

[3] = tested on: COUP-TFII (NR2F2); assay: qPCR of COUP-TFII after RA treatment; settings: day 31 GFP+ CMs, RA-treated vs control differentiation
Description: as §1, §2, §3, §4

## CC1=C(/C=C/C(C)=C/C=C/C(C)=C/C(=O)O)C(C)(C)CCC1 [RA, all-trans retinoic acid]
[1]; RA group, 1 Hz, CT group > 80 mV
  APAplat of individual cells: < 80 mV
[1]; RA treatment group, of 26 cells
  cells with atrial-like action potential properties: about 85%
[2]
  COUP-TFI mRNA, hESC-atrial vs hESC-ventricular CMs: 20 fold
[3]
  COUP-TFII mRNA, hESC-atrial vs hESC-ventricular CMs: over 30 fold
